{
  "source": "patent US20060210480A1",
  "about": "“Treatment of reduction of dysphagia” (priority 2005, published 2006)",
  "key": {"[1]": {"test_system": "human cortical swallowing pathways", "test": "Ten-minute liquid swallowing task with taste solutions; TMS-evoked cortico-pharyngeal motor responses (Example 1)", "assay_type": "in vivo", "conditions": "8 healthy adult volunteers; 0.5 mM quinine hydrochloride swallowing task; immediately and throughout 60 minutes post-intervention; p<0.01", "procedure": "An assessment was made as to the effects of different taste stimuli on human cortical swallowing pathways. The assessment was made upon 8 healthy adult volunteers (seven of which were male, the minimum age of the volunteers being 29 years).\nEach volunteer performed a ten-minute, liquid swallowing task using three (previously titrated) different taste solutions. The three solutions utilised were sterile water (neutral taste), 10% glucose (sweet/pleasant taste), and 0.5 mM quinine hydrochloride (bitter/aversive taste). Solutions were randomised to separate studies at least 24 hours apart.\nTranscranial magnetic stimulation was performed over the swallowing motor cortex, before and up to one hour after each swallow task in accordance with established protocols. Briefly, Single pulse (monophasic) transcranial stimulation (sTMS) of the cerebral cortex was achieved using a magnetic stimulator (a Magstim 200, manufactured by MAGSTIM Company Limited, Whitland, Wales) connected to a 70 mm outer diameter figure-of-8 coil (maximal output of 2.2 Tesla (T)), held in an A-P (Anterior-Posterior) direction, at an angle of 45° tangential to the scalp. […]\nCortico-pharyngeal motor responses were recorded from a swallowed intra-luminal catheter as a measure of cortical excitability. […]"}, "swallowing response [2]": {"test_system": "swallowing response", "test": "Ten-minute infusion of taste stimuli onto the taste receptors of the tongue; pharyngeal MEP (Example 2)", "assay_type": "in vivo, human", "conditions": "volunteers; ten minute infusion to tongue taste receptors; taken over a 60 minute period from administration", "excerpt": "Confirmation of the suitability of […] tasting substances such as the alkaloid quinine to stimulate the swallowing response and thereby aid treatment or reduction of dysphagia was obtained from a second study measuring swallowing reflexes of volunteers receiving neutral, pleasant or aversive taste stimuli. Volunteers receive a ten minute infusion of neutral (water), pleasant (glucose) or aversive (quinine) taste stimuli administered such that they stimulated the taste receptors of the tongue."}, "swallowing response [3]": {"test_system": "swallowing response", "test": "Ten-minute infusion of taste stimuli directly into the stomach; pharyngeal MEP (Example 3)", "assay_type": "in vivo, human", "conditions": "volunteers; ten minute infusion administered directly to the stomach", "excerpt": "The ability of substances such as the […] tasting alkaloid quinine to stimulate the swallowing response when administered into the portion of the upper digestive tract below the mouth was in a third study measuring swallowing reflexes of volunteers receiving neutral, pleasant or aversive taste stimuli. Volunteers receive a ten minute infusion of neutral (water), pleasant (glucose) or aversive (quinine) taste stimuli administered directly into the volunteer's stomach."}},
  "data": [
    {"smiles": "C=C[C@H]1C[N@@]2CC[C@H]1C[C@H]2[C@H](O)c1ccnc2ccc(OC)cc12", "note": "[quinine]", "values": [
      {"measurement": "maximum percentage change from base line in pharyngeal motor evoked potential (MEP) amplitude", "setting": "[1]", "value": "48±11", "unit": "%"},
      {"measurement": "increase in the amplitude of MEP compared with neutral tasting water or pleasant tasting glucose", "setting": "swallowing response [2]", "value": "greater increase"},
      {"measurement": "increase in the swallowing response (measured by MEP)", "setting": "swallowing response [3]", "value": 39, "unit": "%"}
    ]}
  ]
}
